We go through one molecule from patent US20030181527A1, “Novel formulations of alpha-2,4-disulfophenyl-n-tert-butylnitrone” (priority 2000, published 2003).

A short description of this data set: Shelf life of the preferred concentrate formulation. Type of data set: physicochemical. As to conditions: 400 mg/ml, 5 to 50 mM disodium hydrogen phosphate, pH 8.5, nitrogen purged, sealed 20 ml vials.

With `CC(C)(C)[N+]([O-])=Cc1ccc(S(=O)(=O)[O-])cc1S(=O)(=O)[O-].[Na+].[Na+]` [α-(2,4-disulfophenyl)-N-tert-butylnitrone disodium salt], the “Remains in useable condition” value (stored at room temperature) is “at least 6 months”. Further, the Shelf life result (stored refrigerated (approximately 2 to 8° C.)) is “at least 24 months”.
